Six compounds from patent US4927819A, “Cyclo-octane neuroprotective agents” (Merck Sharp & Dohme Limited, priority 1987, dated 1990) can be followed below.

Where a name gives a salt, the structure may show the parent alone.

For assay [1], the system named is tonic seizures induced by N-methyl-DL-aspartic acid (NMDLA) in male Swiss-Webster mice. Nature of the assay: Antagonism of NMDLA-induced tonic seizures in mice. The assay is classed as in vivo, mouse (Swiss-Webster). As to conditions: iv; mouse, i.v. test compound 15 min before s.c. NMDLA 500 mg/kg; observed 30 min; probit analysis. On the procedure:
Compounds of the invention were examined for their ability to antagonise tonic seizures induced by N-methyl-DL-aspartic acid (NMDLA). Groups of 8 male Swiss-Webster mice (25 to 30 g) were injected intravenously with the test compound at various doses, 15 min before s.c. administration of NMDLA (500 mg/kg). […] ED50 values for the antagonism of the NMDLA induced tonic seizures were determined using probit analysis.

For assay [2], the system named is responses to NMDA in rat cortical slice. The assay can be described thus: Rat cortical slice: antagonism of responses to NMDA. The conditions noted are these: from righthand shift in NMDA concentration-response curve, read-out: apparent equilibrium constant (Kb). It is filed as cell-based. As to the method: The effects of compounds of the invention on responses to NMDA were assessed using the rat cortical slice as described by Wong et al., Proc. Natl. Acad. Sci. USA, 1986, 83, 7104. The apparent equilibrium constant (Kb) was calculated from the righthand shift in the NMDA concentration-response curve produced by the compound under test.

One may read the ED50 as the midpoint of the dose-response relation. A high value points to a need for a large dose. In turn, `CC12Cc3ccccc3CC(N1)c1ccccc12` (stereo not drawn) [Example 1, 6-Methyl-5,6,11,12-tetrahydrodibenzo[a,e]cycloocten-6,11-imine Hydrochloride] gave an ED50 in assay [1] of less than 5 mg/kg. Consider `CC12Cc3ccc(Br)cc3CC(N1)c1ccccc12` (stereo not drawn) [Example 3, 2-Bromo-6-methyl-5,6,11,12-tetrahydrodibenzo[a,e]cycloocten-6.11-imine hydrochloride], for which the ED50 in assay [1] was less than 5 mg/kg. As usually defined, the Kb is the equilibrium dissociation constant of an antagonist, usually derived from a functional assay. Consider `COc1ccc2c(c1)CC1NC(C)(C2)c2ccccc21` (stereo not drawn) [Example 12, 2-Methoxy-6-methyl-5,6,11,12-tetrahydrodibenzo [a,e]cycloocten-6,11-imine hydrochloride], for which, in assay [2], the antagonist dissociation constant (Kb) was less than 2000 nM. The same measure, in the same setting: with `CC12Cc3ccc(O)cc3CC(N1)c1ccccc12` (stereo not drawn) [Example 13, 2-Hvdroxy-6-methyl-5,6,11,12-tetrahydrodibenzo[a,e]cycloocten-6.11-imine hydrochloride] the figure was less than 2000 nM. In the case of `CC12Cc3ccccc3CC(O)(N1)c1ccccc12` (stereo not drawn) [Example 15, 11-Hydroxy-6-methyl-5,6,11,12-tetrahydrodibenzo[a,e]cycloocten-6,11-imine hydrochloride], the ED50 in assay [1] was less than 5 mg/kg. Consider `CC12Cc3ccccc3CC(C)(N1)c1ccccc12` [Example 16, 6,11-Dimethyl-5,6,11,12-tetrahydrodibenzo[a,e]cycloocten-6,11-imine hydrochloride], for which the ED50 in assay [1] is less than 5 mg/kg.
